The values below come from patent US20240369551A1 (priority 2021, published 2024).

In experiment [1] the target is epitope-specific SARS-CoV-2 IgGs. As to the kind of experiment: SPR spectroscopy (Biacore T200): IgG binding to immobilized biotinylated peptide epitopes. Set-up: species or system rabbit. To be noted: for binding affinities (estimated Kd, order of magnitude): Example 9, kinetic fitting, streptavidin treated CM5 chip; for apparent Kd: kinetic analysis, very slow dissociation, beyond the instrument sensitivity limit; for Kd: respective target IgG, 25° C.

In experiment [2] the test system is SARS-CoV-2 IgG antibodies. As to the kind of experiment: Immunoassay with epitope-tagged AuNPs (aggregation, relative change in absorbance at 534 nm). It counts as binding, rabbit. To be noted: for limit of detection (LOD): single epitope-functionalized AuNPs (streptavidin-biotin), respective SARS-CoV-2 IgG; for decrease of normalized plasmon peak intensity (534 nm): anti-SARS-CoV-2 S1 IgG; for LOD: detection of anti-SARS-CoV-2 S1 IgG; for nanosensor response: 100 nM anti-S1 IgG. How it is done:
(§1) SARS-CoV-2 IgG antibodies and control antibodies were first diluted in 1×PBS. In a typical experiment, 5 μL of prediluted antibody solution was added to 45 μL of epitope-functionalized AuNPs. The mixture was spun briefly for 20 s at 6000 rpm using a portable microcentrifuge (Profuge 6K) and incubated for another 30 min at room temperature. Absorbance spectra of the supernatant were recorded using a microplate reader (Synergy 2; BioTek). Sensor response was calculated as the relative change in absorbance at 534 nm. For a time-profile study, the absorbance spectra were recorded at 10 min intervals. For a salt-induced aggregation test, solutions of AuNPs were treated with 1×PBS and the absorbance spectra were recorded after a 30 min incubation. For a selectivity screen against other human coronaviruses, the concentration of antibodies was 100 nM. To investigate the sensitivity of AuNPs in human plasma, SARS-CoV-2 IgG rabbit antibodies were spiked into PBS containing various concentrations of human plasma, such that the final plasma concentration after mixing with AuNPs was 0%, 10%, and 20% (v/v).

Another experiment relates to SARS-CoV-2 IgG. In words: Fluorescence polarization (FP) of FITC-labeled epitopes with IgG. Format: binding, rabbit. To be noted: 100 nM FITC-labeled epitope, 200 nM IgG, 15 min, 1×PBS.
The next experiment has as its system COVID19 anti-S1 IgG. In words: UV-vis aggregation test of peptide-coated nanoparticles (Examples 1, 6, 7, 8). It counts as binding. Conditions: for response to COVID-19 IgGs: single epitope thiol-AuNP conjugation with thiolyated spacer CALNN.
A further experiment has as its system MERS IgGs. Format: binding.
The test system of a further experiment is normal human IgG. In words: Immunoassay with epitope-tagged AuNPs, control IgG. It counts as binding. As to the method: as §1
A further experiment has as its system HCoV-HKU1 IgGs. In words: Immunoassay with epitope-tagged AuNPs, selectivity screen. To be noted: 100 nM antibodies. It counts as binding. As to the method:
as §1

The subject of the next experiment is SARS-CoV IgG. Format: binding.
For another experiment, the system named is COVID19 anti-S2 IgG. As to the kind of experiment: UV-vis aggregation test of peptide-AuNP conjugates (Example 2). To be noted: streptavidin-biotin conjugates, peptide 10 or 1 μM. Format: binding. As to the method: Citrate-coated AuNP was functionalized with streptavidin (SA) by mixing 500 nM of SA with 8 nM of citrate-coated AuNP. The mixture was incubated at room temperature for 30 min, and unbound SA was removed from the SA-coated AuNPs (SA-AuNPs) with centrifugation at 12,500 RCF for 15 mins. Then, biotinylated S20P2 or S21P2 peptide (10 or 1 μM) was added to conjugate to the SA-AuNPs. Unreacted peptides were removed from the peptide-AuNP conjugates with centrifugation at 12500 RCF for 12 mins. The conjugates were reconstituted into ultrapure water for further tests with IgG.
For IgG test, 20 μL of COVID19 anti-S2 IgG (SINO Biological) was added to 80 μL of peptide-AuNP conjugates in a 96-well plate. UV-vis spectrum before and after IgG addition are recorded (FIGS. 3A and B). […] For both conjugates, a higher degree of aggregation is observed when lower peptide concentration (1 μM) is used, presumably due to the diluted coating density around AuNP which poses less steric hindrance for binding with IgG.

The mark [3] stands for this setting: real-time kinetic analysis, 1:1 Langmuir model, read-out: Kd from kinetic analysis.
[4] abbreviates: steady-state analysis without dissociation step, read-out: Kd from steady-state analysis.

Several values for one entry are separate records, joined by “and”; a condition that tells them apart may be missing. Equal values may be shown once. Read-outs that look alike come from different tables or passages of the source. Ends that are not written are not given here.

Usually Kd stands for the free concentration of one partner at which half of the binding sites on the other are occupied at equilibrium, for simple one-to-one binding. For the substance TESNKKFLPFQQFGRDIA [S14P5], in experiment [1], the “binding affinities (estimated Kd, order of magnitude)” value (from here on “binding affinities”) is given as “pM” and the “apparent Kd” value is “low pM range”. The Kd in experiment [1] (setting [3]) is less than 0.001 µM. In addition, the Kd in experiment [1] (setting [4]) came out at 0.111 ± 0.015 µM. The “limit of detection (LOD)” value in experiment [2] was 4.1 nM. For the same substance, in the experiment with SARS-CoV-2 IgG, the “relative FP increase” value was “highest relative FP increase”. Besides, the “response to COVID-19 IgGs” value in the experiment with COVID19 anti-S1 IgG was “resulted in nanoparticle aggregation”.

As to GIAVEQDKNTQEVFAQVK [S20P2], in experiment [1], the “binding affinities” value is given as “nM”. Besides, the Kd in experiment [1] (setting [3]) was ~0.08 µM and 0.08 µM; in [1] (setting [4]), 0.51 ± 0.034 µM. Further, the “limit of detection (LOD)” value in experiment [2] was 15.4 nM. For the same substance, in the experiment on SARS-CoV-2 IgG, the “relative FP increase” value is on record as “significant increase in FP values”.

As for “S14P5-AuNPs: Gold nanoparticles functionalized with S14P5; streptavidin-biotin in Example 10, thiol-gold with or without CALNN spacer in Examples 1 and 6 (TESNKKFLPFQQFGRDIA; also: conjugated to gold nanoparticles via streptavidin-biotin or thiol-gold, with or without CALNN spacer)”, the sensor response result with MERS IgGs and in the experiment with HCoV-HKU1 IgGs was “minimal sensor response” throughout. Besides, the “decrease of normalized plasmon peak intensity (534 nm)” value in experiment [2] (first 10 min) came out at 40.2%; in experiment [2] (leveling off within 30 min) it was 67.3%. Further, the LOD in experiment [2] is 4.1 nM; in the experiment on COVID19 anti-S1 IgG (Example 1: thiol-conjugated S14P5 with CALNN blocking, absorbance ratio, 15 min) it was ~30 nM and 4.5 μg/ml. For the same substance, in [2], the “limit of detection (LOD)” value is given as 4.1 nM. Besides, the “dose-dependent aggregation response (decrease in plasmon peak intensity)” value in the experiment with normal human IgG and in the experiment on SARS-CoV IgG was “absent” each time. The “IgG concentration giving visible change in colour from red to purple” value with COVID19 anti-S1 IgG (Example 1: thiol-conjugated S14P5 with CALNN blocking) is recorded as no less than 100 nM. Also, the linear range in the experiment on COVID19 anti-S1 IgG (Example 1: thiol-conjugated S14P5 with CALNN blocking, absorbance ratio) lay within 10 to 100 nM. The “binding / nanoparticle aggregation” value with COVID19 anti-S1 IgG (thiol-AuNP conjugation without spacer, COVID-19 anti-S1 IgG (100 nM)) was “unable to bind to anti COVID-19 IgGs”. In the experiment with SARS-CoV IgG, this substance showed a normalized sensor response of 11.4%. For the same substance, the “normalized sensor response with SARS-CoV IgG relative to SARS-CoV-2 IgG (fold lower)” value in the experiment on SARS-CoV IgG (after 60 min) worked out at 6 fold.

In the case of PSKPSKRSFIEDLLFNKV [S21P2], the “binding affinities” value in experiment [1] is recorded as “pM”. In addition, the “apparent Kd” value in [1] was “low pM range”. The Kd in experiment [1] (setting [3]) was less than 0.001 µM; in experiment [1] (setting [4]), 0.125 ± 0.007 µM. In [2], the “limit of detection (LOD)” value came out at 5.1 nM. In addition, the “relative FP increase” value in the experiment on SARS-CoV-2 IgG is recorded as “significant increase in FP values”. In the experiment on COVID19 anti-S1 IgG, the “response to COVID-19 IgGs” value is “resulted in nanoparticle aggregation”.

With “S21P2-AuNPs: Streptavidin-coated gold nanoparticles functionalized with biotinylated S21P2 epitope (PSKPSKRSFIEDLLFNKV; also: biotinylated, bound to streptavidin-coated gold nanoparticles)”, the sensor response result in the experiment with MERS IgGs and in the experiment on HCoV-HKU1 IgGs was “minimal sensor response” throughout. The “limit of detection (LOD)” value in experiment [2] was 5.1 nM. The “aggregation of peptide-coated AuNPs” value with COVID19 anti-S2 IgG is recorded as “significant aggregation”.

NNAAIVLQLPQGTTLPKG [N4P5]: the “binding affinities” value in experiment [1] is “μM”. In addition, the Kd in experiment [1] (setting [3]) is ~0.218 µM and 0.218 µM; in experiment [1] (setting [4]), 1.61 ± 0.12 µM. In experiment [2], the “limit of detection (LOD)” value is recorded as 25.8 nM. Besides, in the experiment with SARS-CoV-2 IgG, the “relative FP increase” value was “comparably lower percentage of FP increase”.

As for “S14P5/S21P2-AuNPs: Streptavidin-coated gold nanoparticles functionalized with both biotinylated S14P5 and S21P2 epitopes (peptide 1 TESNKKFLPFQQFGRDIA; peptide 2 PSKPSKRSFIEDLLFNKV; also: biotinylated peptides on streptavidin-coated gold nanoparticle)”, the “recognition of anti-S1 and anti-S2 IgGs of SARS-CoV-2” value in experiment [2] (50 nM of anti-S1 IgG or anti-S2 IgG (FIG. 23)) is “able to recognize both anti-S1 and anti-S2 IgGs”. For the same substance, the nanosensor response in experiment [2] (5-fold diluted human plasma) is recorded as 14.6%; in [2] (10-fold diluted human plasma) it was 22.8%; in experiment [2] (pure PBS), 78.2%. In experiment [2], the LOD is recorded as 3.2 nM.
